Data taken from ChEMBL document CHEMBL4118121, “Anticomplement compounds from Polygonum chinense” (Bioorg Med Chem Lett, 2018).
In brackets after ≈: the same amount, converted by molar mass. Activity calls are given as the source filed them. No cut-off for these calls is given here.

Key:
[1] = tested on: Erythrocyte; test: Anticomplement activity in rabbit erythrocytes assessed as concentration required for 50% hemolytic inhibition by alternative pathway pretreated for 10 mins with normal human serum followed by erythrocyte addition measured after 30 mins by spectrophotometeric method; assay type: functional, cell-based; settings: Oryctolagus cuniculus
[2] = tested on: Erythrocyte; test: Anticomplement activity in sheep erythrocytes assessed as concentration required for 50% hemolytic inhibition by classic pathway pretreated for 10 mins with guinea pig serum followed by erythrocyte addition measured after 30 mins by spectrophotometeric method; assay type: functional, cell-based; settings: Ovis aries
[3] = tested on: Erythrocyte; test: Anticomplement activity in sheep erythrocytes assessed as inhibition of complete hemolysis by classical pathway after 30 mins of compound treatment in normal human serum; assay type: functional; settings: Ovis aries, 0.5 h
[4] = tested on: Erythrocyte; test: Anticomplement activity in sheep erythrocytes assessed as inhibition of hemolysis by classical pathway after 30 mins of compound treatment in normal human serum with C3-depleted sera; assay type: functional, cell-based; settings: Ovis aries
[5] = tested on: Erythrocyte; test: Anticomplement activity in sheep erythrocytes assessed as inhibition of hemolysis by classical pathway after 30 mins of compound treatment in normal human serum with C5-depleted sera; assay type: functional, cell-based; settings: Ovis aries
[6] = tested on: Erythrocyte; test: Anticomplement activity in sheep erythrocytes assessed as inhibition of hemolysis by classical pathway after 30 mins of compound treatment in normal human serum with C1q-depleted sera; assay type: functional, cell-based; settings: Ovis aries
[7] = tested on: Erythrocyte; test: Anticomplement activity in sheep erythrocytes assessed as inhibition of hemolysis by classical pathway after 30 mins of compound treatment in normal human serum with C9-depleted sera; assay type: functional, cell-based; settings: Ovis aries
[8] = tested on: Erythrocyte; test: Anticomplement activity in sheep erythrocytes assessed as inhibition of hemolysis by classical pathway after 30 mins of compound treatment in normal human serum with C4-depleted sera; assay type: functional, cell-based; settings: Ovis aries
[9] = tested on: Erythrocyte; test: Anticomplement activity in sheep erythrocytes assessed as inhibition of hemolysis by classical pathway after 30 mins of compound treatment in normal human serum with C2-depleted sera; assay type: functional, cell-based; settings: Ovis aries
[10] = tested on: Erythrocyte; test: Anticomplement activity in sheep erythrocytes assessed as inhibition of hemolysis by classical pathway by measuring hemolysis after 30 mins of compound treatment in normal human serum with C9-depleted sera relative to control; assay type: functional, Ovis aries
[11] = tested on: Erythrocyte; test: Anticomplement activity in sheep erythrocytes assessed as inhibition of hemolysis by classical pathway by measuring hemolysis after 30 mins of compound treatment in normal human serum with C5-depleted sera relative to control; assay type: functional, Ovis aries
[12] = tested on: Erythrocyte; test: Anticomplement activity in sheep erythrocytes assessed as inhibition of hemolysis by classical pathway by measuring hemolysis after 30 mins of compound treatment in normal human serum with C4-depleted sera relative to control; assay type: functional, Ovis aries
[13] = tested on: Erythrocyte; test: Anticomplement activity in sheep erythrocytes assessed as inhibition of hemolysis by classical pathway by measuring hemolysis after 30 mins of compound treatment in normal human serum with C3-depleted sera relative to control; assay type: functional, Ovis aries

CC1(C)OC[C@H]([C@@H]2OC(=O)[C@]3(O)[C@@H]2OC(=O)C[C@H]3c2ccc(O)cc2)O1
IC50 [1]: 1170 µM | IC50 [2]: 920 µM

COc1c(O)cc2c(=O)oc3c(O)c(O[C@@H]4O[C@@H](C)[C@H](O)[C@@H](O)[C@H]4O)cc4c(=O)oc1c2c34
MIC [3]: 340 µM (≈ 157 µg/mL) | IC50 [1]: 260 µM | inhibition [4]: Active | inhibition [5]: Active | inhibition [6]: Active | IC50 [2]: 180 µM

COc1c(O)cc2c(=O)oc3c(OC)c(O)cc4c(=O)oc1c2c34
IC50 [1]: 1070 µM | IC50 [2]: 870 µM

COc1c(O)cc2c(=O)oc3c(OC)c(O[C@@H]4OC[C@@H](O)[C@H](O)[C@H]4O)cc4c(=O)oc1c2c34
IC50 [1]: 290 µM | IC50 [2]: 230 µM

CCOC(=O)[C@@H](CC(=O)OC)[C@H]1c2c(cc(O)c(O)c2O)C(=O)O[C@@H]1C(=O)OCC
IC50 [1]: 1530 µM | IC50 [2]: 1250 µM

CCOC(=O)C1CC(=O)c2oc(=O)c3cc(O)c(O)c(O)c3c21 (configuration not stated) [ETHYLBREVIFOLIN CARBOXYLATE]
IC50 [1]: 1360 µM | IC50 [2]: 1080 µM

CCOC(=O)[C@H]1OC(=O)c2cc(O)c(O)c(O)c2[C@@H]1CC(=O)OC
IC50 [1]: 1840 µM | IC50 [2]: 1450 µM

COC(=O)c1cc(O)c(O)c(O)c1 [GALLIC ACID METHYL ESTER]
IC50 [1]: 1070 µM | IC50 [2]: 840 µM

CCOC(=O)[C@H]1OC(=O)c2cc(O)c(O)c(O)c2[C@@H]1[C@H](CC(=O)O)C(=O)O
MIC [3]: 840 µM (≈ 323 µg/mL) | inhibition [7]: inactive | IC50 [1]: 550 µM | inhibition [4]: Active | inhibition [5]: Active | inhibition [6]: inactive | inhibition [8]: Active | IC50 [2]: 460 µM | inhibition [9]: inactive

COc1cc(/C=C/C(=O)OCCc2ccc(O)cc2)ccc1O
IC50 [1]: 1010 µM | IC50 [2]: 660 µM

COc1cc([C@@H](O)[C@@H]2C(=O)NCCc3ccc(cc3)Oc3ccc(cc3)CCNC(=O)/C=C/c3cc(OC)c(O)c2c3)ccc1O
IC50 [1]: 720 µM | IC50 [2]: 520 µM

COc1cc(/C=C/C(=O)NCCc2ccc(O)cc2)ccc1O [N-TRANS-FERULOYL TYRAMINE]
IC50 [1]: 1330 µM | IC50 [2]: 880 µM

O=c1oc2c(O)c(O)cc3c(=O)oc4c(O)c(O)cc1c4c23 [ELLAGIC ACID]
IC50 [1]: 320 µM | IC50 [2]: 320 µM

CCOC(=O)c1cc(O)c(O)c(O)c1 [ETHYLGALLATE]
IC50 [1]: 1240 µM | IC50 [2]: 1000 µM

O=C(O)c1cc(O)c(O)c(O)c1 [GALLIC ACID]
IC50 [1]: 740 µM | IC50 [2]: 590 µM

COc1c(O)cc2c(=O)oc3c(O)c(O)cc4c(=O)oc1c2c34
IC50 [1]: 670 µM | IC50 [2]: 580 µM

O=C1C[C@@H](c2ccc(O)cc2)[C@]2(O)C(=O)O[C@@H]([C@H](O)CO)[C@H]2O1
inhibition (INH) [10]: <10.6% | MIC [3]: 1760 µM (≈ 571 µg/mL) | inhibition (INH) [11]: <10.6% | IC50 [1]: 990 µM | inhibition [6]: inactive | inhibition (INH) [12]: <10.6% | inhibition (INH) [13]: <10.6% | IC50 [2]: 730 µM | inhibition [9]: inactive

COC(=O)C1CC(=O)c2oc(=O)c3cc(O)c(O)c(O)c3c21 (configuration not stated) [METHYLBREVIFOLIN CARBOXYLATE]
IC50 [1]: 1260 µM | IC50 [2]: 1040 µM

CCOC(=O)[C@@H](CC(=O)O)[C@H]1c2c(cc(O)c(O)c2O)C(=O)O[C@@H]1C(=O)OCC
IC50 [1]: 870 µM | IC50 [2]: 770 µM

COc1cc([C@@H]2OC(=O)[C@@H]3[C@H]2CO[C@H]3c2ccc(O)c(OC)c2)ccc1O
IC50 [1]: 1160 µM | IC50 [2]: 880 µM

COc1cc(/C=C(/C(=O)NCCc2ccc(O)cc2)c2cc(OC)c(O)c(OC)c2)ccc1O
IC50 [1]: 2800 µM | IC50 [2]: 1340 µM

Cc1ccc(C(=O)Nc2ccc(S(=O)(=O)O)c3cc(S(=O)(=O)O)cc(S(=O)(=O)O)c23)cc1NC(=O)c1cccc(NC(=O)Nc2cccc(C(=O)Nc3cc(C(=O)Nc4ccc(S(=O)(=O)O)c5cc(S(=O)(=O)O)cc(S(=O)(=O)O)c45)ccc3C)c2)c1 [SURAMIN]
IC50 [1]: 180 µM | IC50 [2]: 120 µM

O=C1CCc2c1oc(=O)c1cc(O)c(O)c(O)c21
IC50 [1]: 1560 µM | IC50 [2]: 1250 µM

O=C(O)/C=C/c1ccc(O)c(O)c1 [CAFFEIC ACID]
IC50 [1]: 940 µM | IC50 [2]: 750 µM

COc1cc2c(=O)oc3c(O)c(OC)cc4c(=O)oc(c1O)c2c34
IC50 [1]: 1310 µM | IC50 [2]: 1100 µM

CC(=O)N[C@H]1[C@@H](O[C@H]2[C@H](O)[C@@H](O)[C@H](O[C@H]3[C@H](OS(=O)(=O)O)[C@@H](OS(=O)(=O)O)[C@@H](O[C@H]4[C@H](O)[C@@H](OS(=O)(=O)O)C(O)O[C@H]4C(=O)O)O[C@@H]3CO)O[C@@H]2C(=O)O)O[C@H](COS(=O)(=O)O)[C@@H](O)[C@@H]1O (some centres not stated)
IC50 [1]: 135 µg/mL | IC50 [2]: 93 µg/mL

O=C(O)C[C@H](C(=O)O)[C@H]1c2c(cc(O)c(O)c2O)C(=O)O[C@@H]1C(=O)O
IC50 [1]: 730 µM | IC50 [2]: 620 µM

COc1cc([C@H]2c3cc(O)c(OC)cc3/C(=C/C(=O)NCCc3ccc(O)cc3)[C@H]2C(=O)NCCc2ccc(O)cc2)ccc1O
MIC [3]: 820 µM (≈ 512 µg/mL) | IC50 [1]: 420 µM | inhibition [4]: Active | inhibition [8]: Active | IC50 [2]: 390 µM
